Source: publication PMC8048860 (Chemmedchem, 2020)

Columns and labels:
[1] = test system: T. cruzi (Tulahuen strain, DTU VI) expressing beta-galactosidase; test: T. cruzi growth inhibition assay; format: cell-based, Trypanosoma cruzi; settings: read-out: T. cruzi EC50; averages of triplicate data; 3T3 host cells, 6 days
[2] = test system: human hepatocellular cells (HepG2); test: Mammalian cell growth inhibition assay, HepG2; format: cell-based; settings: for EC50: HepG2, 48 h, read-out: Hep G2 EC50
[3] = test system: human lymphocytic cells (CRL-8155); test: Mammalian cell growth inhibition assay, CRL-8155; format: cell-based; settings: for EC50: CRL8155, 48 h, read-out: CLR‐8155 EC50

Compound | EC50 [1] | EC50 [2] | EC50 [3] | EC90 ([2]; HepG2, read-out: Hep G2 EC90 (control compound)) | EC90 ([3]; CRL8155, read-out: CRL‐8155 EC90 (control compound))
Cc1ccc2nc(-c3ccc(F)c(F)c3)c(CN3CCN(C4CCCCC4)CC3)n2c1 [Compound 37] | 2.6 µM |  |  |  | 
Cc1ccc2nc(-c3ccc(F)c(F)c3)c(CN3CCC(Cc4ccccc4)CC3)n2c1 [Compound 39] | 1.6 µM | > 50 µM | > 50 µM |  | 
CCN(CC)CCCC(C)Nc1c2ccc(Cl)cc2nc2ccc(OC)cc12 (centres unmarked) [Quinacrine] |  | 14.3 µM | 5.47 µM | 18.7 µM | 15.7 µM
